Assay results from patent US8703957B2 (Janssen Pharmaceutica NV, priority 2001, dated 2014).

What was measured:
[1] = molecular target: T1, human neutrophil cathepsin G (Homo sapiens, UniProt P08311); assay: Enzyme-catalyzed hydrolysis assay, cathepsin G (chromogenic substrate Suc-Ala-Ala-Pro-Phe-pNa); format: biochemical; conditions: 70 nM enzyme, 5 mM substrate, pH 7.4, 37° C., 30 minutes; read-out: IC50 (μM) CatG
T1 construct: human neutrophil cathepsin G (Athens Research and Technology); purchased Athens Research and Technology; host or cells: human neutrophils (from the enzyme's name)
T1 sequence (P08311 21-243 limits assumed): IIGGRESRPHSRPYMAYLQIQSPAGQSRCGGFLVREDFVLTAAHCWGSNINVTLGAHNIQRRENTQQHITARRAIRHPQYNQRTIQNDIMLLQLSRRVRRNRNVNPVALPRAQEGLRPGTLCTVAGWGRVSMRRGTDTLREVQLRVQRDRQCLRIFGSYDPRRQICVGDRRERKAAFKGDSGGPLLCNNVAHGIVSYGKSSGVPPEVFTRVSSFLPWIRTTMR
Experimental: (§1) Enzyme-catalyzed hydrolysis rates were measured spectrophotometrically using human neutrophil cathepsin G (Athens Research and Technology) or human skin chymase (Cortex Biochem), a chromogenic substrate (Suc-Ala-Ala-Pro-Phe-pNa) (Bachem) in aqueous buffer (100 mM Hepes, 500 mM NaCl, pH 7.4 for catG; 450 mM Tris, 1800 mM NaCl, pH 8.0 for chymase), and a microplate reader (Molecular Devices). […] Percent inhibition was calculated by comparing the initial reaction slopes of the samples without inhibitor to those with inhibitor. IC50 values were determined using a four parameter fit logistics model. The term “NT” indicates a compound that was not tested.

human skin chymase = molecular target: T2, human skin chymase (Homo sapiens, UniProt P23946); assay: Enzyme-catalyzed hydrolysis assay, chymase (chromogenic substrate Suc-Ala-Ala-Pro-Phe-pNa); format: biochemical; conditions: 10 nM enzyme, 0.7 mM substrate, pH 8.0, 37° C., 30 minutes
T2 construct: human skin chymase (Cortex Biochem); purchased Cortex Biochem; host or cells: human skin (from the enzyme's name)
T2 sequence (P23946 22-247): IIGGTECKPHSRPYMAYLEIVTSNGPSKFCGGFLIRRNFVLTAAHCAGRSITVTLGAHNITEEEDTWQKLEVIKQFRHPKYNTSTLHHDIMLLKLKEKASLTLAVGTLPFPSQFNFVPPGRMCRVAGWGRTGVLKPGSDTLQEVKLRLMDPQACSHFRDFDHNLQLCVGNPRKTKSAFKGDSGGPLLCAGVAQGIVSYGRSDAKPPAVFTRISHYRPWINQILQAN
Experimental: as §1

[2] = system: inflammatory cell numbers in the broncho-alveolar lavage (BAL) fluid; assay: Inflammatory cell counts in broncho-alveolar lavage (BAL) fluid of antigen-challenged sheep; format: in vivo
Experimental: Baseline dose response curves to aerosol carbachol were obtained 1-3 days prior to antigen challenge. Baseline values of specific lung resistance (SRL) were obtained and the sheep were then given a specified amount (mg) of the test compound as an inhaled aerosol at a specified time before antigen challenge. Post drug measurements of SRL were obtained and the sheep were then challenged with Ascaris suum antigen. Measurements of SRL were obtained immediately after challenge, hourly from 1-6 h after challenge and on the half-hour from 6½-8 h after challenge. Measurements of SRL were obtained 24 h after challenge followed by a 24 h post-challenge with carbachol to measure airway hyperreactivity. […] Ascaris suum antigen challenge was given at the zero time point.

[3] = system: Ascaris suum antigen-induced asthmatic response in conscious sheep; assay: Ascaris suum antigen-induced asthmatic response in conscious sheep: specific lung resistance and airway hyperreactivity; format: in vivo
Experimental: The efficacy of Compound 2 for the treatment of asthma was evaluated in a validated model of Ascaris suum antigen-induced asthmatic response in conscious sheep (Abraham, W. M., Pharmacology of allergen-induced early and late airway responses and antigen-induced airway hyperresponsiveness in allergic sheep, Pulmonary Pharmacology, 1989, 2, 33-40).
Baseline dose response curves to aerosol carbachol were obtained 1-3 days prior to antigen challenge. Baseline values of specific lung resistance (SRL) were obtained and the sheep were then given a specified amount (mg) of the test compound as an inhaled aerosol at a specified time before antigen challenge. Post drug measurements of SRL were obtained and the sheep were then challenged with Ascaris suum antigen. Measurements of SRL were obtained immediately after challenge, hourly from 1-6 h after challenge and on the half-hour from 6½-8 h after challenge. Measurements of SRL were obtained 24 h after challenge followed by a 24 h post-challenge with carbachol to measure airway hyperreactivity.
Compound 2 was administered as an aerosol at 0.1 mg/Kg/dose, twice-a-day (BID) for three consecutive days, followed by a dose on day 4, 0.5 h prior to antigen challenge. Ascaris suum antigen challenge was given at the zero time point.

[4] = system: inflammatory cell numbers in the broncho-alveolar lavage (BAL) fluid; assay: Inflammatory cell counts in broncho-alveolar lavage (BAL) fluid of antigen-challenged sheep; format: in vivo; conditions: 1.0 mg/kg × 4 days, last dose 30 min prior to antigen challenge
[5] = 8 h Post Antigen, 1.0 mg/kg × 4 days, last dose 30 min prior to antigen challenge
[6] = 24 h Post Antigen, 1.0 mg/kg × 4 days, last dose 30 min prior to antigen challenge
[7] = Baseline, 1.0 mg/kg × 4 days, last dose 30 min prior to antigen challenge

| IC50 [1] [µM] | IC50 (human skin chymase) [µM] | Compound | further results |
| --- | --- | --- | --- |
| 0.238 ± 0.03 | 0.022 ± 0.062 | O=C(c1cc2ccccc2cc1C(=O)N1CCC(c2ccccc2)C1)C(c1cccc2ccccc12)P(=O)(O)O (stereo not shown) [Compound 19, [1-(1-naphthalenyl)-2-oxo-2-[3-[(3-phenyl-1-pyrrolidinyl)carbonyl]-2-naphthalenyl]ethyl]-phosphonic acid] |  |
| 0.07 ± 0.01 | 0.0051 ± 0.0022 | CC1CCC(N(C)C(=O)c2cc3ccccc3cc2C(=O)C(c2cccc3ccccc23)P(=O)(O)O)CC1 (stereo not shown) [Compound 27, [2-[3-[[methyl(4-methylcyclohexyl)amino]carbonyl]-2-naphthalenyl]-1-(1-naphthalenyl)-2-oxoethyl]-phosphonic acid] |  |
| 0.09 ± 0.023 | 0.004 ± 0.002 | CC(C)C(=O)N1CCC(N(C)C(=O)c2cc3ccccc3cc2C(=O)C(c2cccc3ccccc23)P(=O)(O)O)CC1 (stereo not shown) [Compound 20, [2-[3-[[methyl[1-(2-methyl-1-oxopropyl)-4-piperidinyl]amino]carbonyl]-2-naphthalenyl]-1-(1-naphthalenyl)-2-oxoethyl]-phosphonic acid] |  |
| 0.19 ± 0.02 | 0.0085 ± 0.0023 | O=C(c1cc2ccccc2cc1C(=O)N1CCC(c2nc3ccccc3s2)CC1)C(c1cccc2ccccc12)P(=O)(O)O (stereo not shown) [Compound 16, [2-[3-[[4-(2-benzothiazolyl)-1-piperidinyl]carbonyl]-2-naphthalenyl]-1-(1-naphthalenyl)-2-oxoethyl]-phosphonic acid] |  |
| 0.083 ± 0.014 | 0.0053 ± 0.0019 | CN(C(=O)c1cc2ccccc2cc1C(=O)C(c1cccc2ccccc12)P(=O)(O)O)C1CCC(c2ccccc2)CC1 (stereo not shown) [Compound 1, [2-[3-[[methyl(4-phenylcyclohexyl)amino]carbonyl]-2-naphthalenyl]-1-(1-naphthalenyl)-2-oxoethyl]-phosphonic acid] |  |
|  |  | CN(C(=O)c1cc2ccccc2cc1C(=O)C(c1cccc2ccccc12)P(=O)(O)O)C1CCN(C(=O)c2ccc3ccccc3c2)CC1 (stereo not shown) [Compound 2, [2-[3-[[methyl[1-(2-naphthalenylcarbonyl)-4-piperidinyl]amino]carbonyl]-2-naphthalenyl]-1-(1-naphthalenyl)-2-oxoethyl]-phosphonic acid] | BAL Cell Count Lymphocytes [2, 5]: 4.16 ± 1.10 × 1000/mL; BAL Cell Count Neutrophils [2, 5]: 3.17 ± 0.65 × 1000/mL; BAL Cell Count Lymphocytes [2, 6]: 3.72 ± 0.77 × 1000/mL; BAL Cell Count Macrophages [2, 6]: 75.16 ± 2.71 × 1000/mL; BAL Cell Count Eosinophils [2, 7]: 0.00 × 1000/mL; BAL Cell Count Macrophages [2, 7]: 69.06 ± 1.97 × 1000/mL; BAL Cell Count Neutrophils [2, 7]: 12.66 ± 2.07 × 1000/mL; rise in inflammatory cell numbers in the broncho-alveolar lavage (BAL) fluid ([2]; after antigen challenge, sheep, summary of Table 5): blocked; early airway response (specific lung resistance, SRL) ([3]; 0-2 h after antigen challenge, aerosol 0.1 mg/Kg/dose BID for three days plus dose on day 4, 0.5 h prior to challenge, n=4 sheep/group, FIG. 1): dramatically reduced; late airway response (specific lung resistance, SRL) ([3]; 6-8 h after antigen challenge, aerosol 0.1 mg/Kg/dose BID for three days plus dose on day 4, 0.5 h prior to challenge, n=4 sheep/group, FIG. 1): completely blocked; delayed airway hyperreactivity measured using carbachol challenge (PC 400) ([3]; 24 h post antigen challenge, FIG. 2): completely blocked; BAL Cell Count Eosinophils ([4]; 8 h Post Antigen): 0.37 ± 0.32 × 1000/mL; BAL Cell Count Macrophages ([4]; 8 h Post Antigen): 77.85 ± 2.36 × 1000/mL; BAL Cell Count Eosinophils ([4]; 24 h Post Antigen): 0.04 ± 0.03 × 1000/mL; BAL Cell Count Neutrophils ([4]; 24 h Post Antigen): 3.86 ± 0.95 × 1000/mL; BAL Cell Count Lymphocytes ([4]; Baseline): 3.15 ± 0.79 × 1000/mL |
| 0.09 ± 0.04 | 0.007 ± 0.001 | O=C(NC1CCN(C(=O)c2cc3ccccc3cc2C(=O)C(c2cccc3ccccc23)P(=O)(O)O)CC1)c1ccc2ccccc2c1 (stereo not shown) [Compound 34] |  |
| 0.179 ± 0.038 | 0.0073 ± 0.0017 | COc1ccc(C2CCN(C(=O)c3cc4ccccc4cc3C(=O)C(c3cccc4ccccc34)P(=O)(O)O)CC2)cc1 (stereo not shown) [Compound 12, [2-[3-[[4-(4-methoxyphenyl)-1-piperidinyl]carbonyl]-2-naphthalenyl]-1-(1-naphthalenyl)-2-oxoethyl]-phosphonic acid] |  |
| 0.156 ± 0.028 | 0.0097 ± 0.0035 | O=C(c1cc2ccccc2cc1C(=O)N1CCC(CCc2ccccc2)C1)C(c1cccc2ccccc12)P(=O)(O)O (stereo not shown) [Compound 25, [1-(1-naphthalenyl)-2-oxo-2-[3-[[3-(2-phenylethyl)-1-pyrrolidinyl]carbonyl]-2-naphthalenyl]ethyl]-phosphonic acid] |  |
| > 100 | 15 ± 0.67 | CN(C(=O)c1ccccc1C(=O)C(c1cccc2ccccc12)P(=O)(O)O)C1CCN(C(=O)c2ccc3ccccc3c2)CC1 (stereo not shown) [Compound 31, [2-[2-[[methyl[1-(2-naphthalenylcarbonyl)-4-piperidinyl]amino]carbonyl]phenyl]-1-(1-naphthalenyl)-2-oxoethyl]-phosphonic acid] |  |

| Compound | IC50 [1] [µM] | IC50 (human skin chymase) [µM] | further results |
| --- | --- | --- | --- |
| [2-[3-[[[1-[(2E)-3-(4-fluorophenyl)-1-oxo-2-propenyl]-3-pyrrolidinyl]methylamino]carbonyl]-2-naphthalenyl]-1-(1-naphthalenyl)-2-oxoethyl]-phosphonic acid [Compound 5] | 0.072 ± 0.021 | 0.2 ± 0.4 |  |
| [2-[3-[(cyclopentylmethylamino)carbonyl]-2-naphthalenyl]-1-(1-naphthalenyl)-2-oxoethyl]-phosphonic acid [Compound 21] | 0.07 ± 0.02 | 0.0096 ± 0.0034 |  |
| [2-[3-[[(1-acetyl-4-piperidinyl)methylamino]carbonyl]-2-naphthalenyl]-1-(1-naphthalenyl)-2-oxoethyl]-phosphonic acid [Compound 26] | 0.096 ± 0.018 | 0.015 ± 0.001 |  |
